According to US20230312652A1, “NOVEL PEPTIDES AND USES THEREOF” (Aarhus Universitet, priority 2020, published 2023):
Read-outs that look alike come from different tables or passages of the source. Where a SMILES comes first, the peptide text is derived from it.

Experiments:
[1] = Plasma, whole brain and cerebrospinal fluid concentrations after SC or IV injection, LC MS/MS; type: in vivo, mouse; settings: for half-life: mouse, in vivo, read-out: T½ in brain (converted)
Procedure: 13 mg/kg and 52 mg/kg of P1 were either subcutaneously or intravenously injected in wild-type mice in either 4.38 mM L-His, 140 mM NaCl, 0.2% Tween-20 and 1500 IU hyaluronidase (for SC, pH 6.15) or saline (IV). Both plasma, whole brain and cerebrospinal fluid concentrations were validated at different timepoints of 0.25-4 hours by LC MS/MS.
We further explored whether delivery to the CSF and brain would be dose-dependent by the SC route. P1 (SEQ ID NO: 1) were subcutaneously injected in wild-type mice in different concentrations of 0-52 mg/kg in 4.38 mM L-His, 140 mM NaCl, 0.2% Tween-20 and 1500 IU hyaluronidase (pH 6.15). Levels of P1 were validated in both plasma, whole brain and cerebrospinal fluid after 15 min injection by LC MS/MS.
13 mg/kg of P1 (SEQ ID NO: 1) were subcutaneously injected in wild-type mice in different formulations in either PBS buffer, in buffer containing 4.38 mM L-His, 140 mM NaCl, 0.2% Tween-20 and 1500 IU hyaluronidase (pH 6.15) or in buffer with 4.38 mM L-His, 140 mM NaCl, 0.2% Tween-20. Levels of P1 were validated in both plasma and whole brain after 15 and 30 min. of injection by LC MS/MS.

CREB and AMPK = CREB and AMPK activation in brain of wild-type mice after subcutaneous injection; type: in vivo, mouse; settings: SC
Procedure: To assess the subcutaneous administration route of peptide P1, 8 weeks old wild-type mice were subcutaneously injected with different doses ranging between 0.13 to 26 mg/kg of peptide P1 dissolved in 4.38 mM L-His, 140 mM NaCl, 0.2% Tween-20 and 1500 IU hyaluronidase (pH 6.15). Likewise, was an earlier lead peptide constituting a linear version of P1 attached to a cell-penetrating moiety (P9, SEQ ID NO: 9), tested for its ability to activate CREB in both striatum and hippocampus (in a separate study) following subcutaneous injection with 3.6 mg/kg. 2 hours after injection the mice were sacrificed by cervical dislocation and striatal tissue was isolated by dissection and snap frozen in liquid nitrogen and stored at −80° C. until further use. To assess the activation of CREB and AMPK, the tissue was lysed using a TissueLyser in lysis buffer containing cOmplete and DTT. The samples were subsequently homogenized by sonication. The phosphorylation of CREB on serine 133 and threonine 172 on AMPK was subsequently validated by western blotting and the levels of were normalized to beta-actin. Student's t-test was used for statistical analysis.

[2] = Plasma binding, mouse plasma, ultracentrifugation; type: in vitro ADME
Procedure: For plasma binding, 2 μM P1 or Warfarin (positive control) were added to mouse or human plasma. After 30 minutes incubation at 37° C., samples where ultracentrifuged for 4 hours to generate protein-free samples for LCMS analysis. In parallel, plasma was incubated for 4.5 h to determine total levels after incubation. Plasma binding was calculated as % Bound=100*(1−F/T4.5), where F is concentration of free ligand and T4.5 is the concentration of total ligand after incubation.

[3] = Mouse brain homogenate binding; type: in vitro ADME; settings: 2 μM
Procedure: Mouse brain homogenate was incubated with 2 μM of P1 or 7-Ethoxycoumarin (positive control of degradation). Enzymatic reactions were stopped at timepoints between 0-240 min and samples analysed by LCMS. For test with protease inhibitors, brain homogenate was pre-incubated for 30 minutes with protease inhibitors prior to incubation with P1. For brain homogenate binding, 2 μM of P1 or propranolol (positive control) were added to mouse brain homogenate and incubated at 37° C. for 30 minutes. To prepare the protein-free samples (F samples) to be used for unbound determination, an aliquot of the pre-incubated matrix containing test compound or control compound was transferred to ultracentrifuge tubes and subjected to ultracentrifugation at 37° C., 35000 rpm for 4 hrs. In parallel, brain homogenate was incubated for 4.5 hrs to determine total levels after incubation.

CREB = CREB activation in GRN+/- cortical neurons, western blotting; type: cell-based, mouse; settings: 1 uM, 20 minutes
Procedure: In this study, it was examined whether peptide P1 could increase phosphorylation of CREB (ser133) similar to wild-type neurons. To study the activation of CREB, cortical neurons were isolated from GRN+/−p0 […] mice and seeded in a density of 500,000 per well. After 7 days in vitro the neurons were stimulated with peptide P1 at 1 uM in neurobasal A media at 37° C. and 5% CO2 and incubated for 20 minutes. Following, the neurons were lysed in lysis buffer containing DTT and cOmplete cocktail protease inhibitor and subsequently sonicated to disrupt the nuclear membrane. The phosphorylation of CREB on serine 133 was subsequently validated by western blotting. The levels of phosphorylated CREB were normalized to the corresponding beta-actin levels. Student's t-test was used for statistical analysis.

[4] = SC 0-52 mg/kg, 15 min after injection

CSCC[C@@H]1NC(=O)[C@H](C(C)C)NC(=O)[C@H](CC(=O)O)NC(=O)[C@H](CCC(=O)O)NC(=O)[C@H](CCC(=O)O)NC(=O)[C@H](Cc2c[nH]cn2)NC(=O)[C@H](CCC(=O)O)NC(=O)[C@H](C(C)C)NC(=O)[C@@H]2CCCN2C(=O)[C@H](CCC(=O)O)NC(=O)[C@H]([C@@H](C)O)NC1=O [Peptide P1, [MTEPVEHEEDV]] (cyclo(MTEPVEHEEDV))
difference between L-His buffer with or without hyaluronidase ([1]; 13 mg/kg SC, plasma and whole brain, 15 and 30 min): no significant difference
levels in plasma and whole brain in different formulations ([1]; 13 mg/kg SC, PBS, L-His buffer with or without hyaluronidase, 15 and 30 min): measurable in the plasma and brain in all formulations
maximal brain-plasma ratio ([1]; IV delivery): 0.034
levels in brain and CSF [1, 4]: measurable in the brain and CSF at all concentrations
levels in plasma, brain and CSF versus dose [1, 4]: increased with the dosage
maximal brain-plasma ratio ([1]; SC delivery): 0.032
half-life ([1]; IV delivery, saline): 13.9 min
half-life ([1]; SC delivery, L-His buffer with hyaluronidase): 19 min
dose resulting in the highest efficacy (CREB and AMPK; CREB and AMPK activation in striatum): 13 mg/kg
pAMPK in striatum (CREB and AMPK; doses between 0.13-13 mg/kg, 2 hours after injection): significantly activated
pCREB (S133) in striatum (CREB and AMPK; doses between 0.13-26 mg/kg, 2 hours after injection): significantly activated
plasma binding ([2]; 2 μM): very low plasma binding
fraction unbound at 30 min, 2 μM ([2]; read-out: compound unbound in plasma): > 0.75
brain homogenate binding [3]: less than 20%
phosphorylation of CREB (S133) (CREB): able to activate CREB
